From ChEMBL document CHEMBL1201862, “PubChem BioAssay data set” (2004) come the findings set out here.

Molecules are shown by their SMILES. Activity calls are given as the source filed them.

Assay [1] concerns the target Serine/threonine-protein kinase TBK1 (Homo sapiens, UniProt Q9UHD2). Kind of assay: Navigating the Kinome. Panel member name: TBK1. In kind it is functional.
In assay [2] the target is Leukocyte tyrosine kinase receptor (Homo sapiens, UniProt P29376). As to the kind of experiment: Navigating the Kinome. Panel member name: LTK. In kind it is functional.
In assay [3] the target is Glycogen synthase kinase-3 beta (Homo sapiens, UniProt P49841). In kind it is functional.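 Note: value comes from a broad kinome profiling panel, with GSK3B as the panel member.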
Assay [4] has as its target Dual specificity protein kinase CLK2 (Homo sapiens, UniProt P49760). It is filed as functional.
For assay [5], the target named is Tyrosine-protein kinase receptor TYRO3 (Homo sapiens, UniProt Q06418). In kind it is functional.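 Note: TYRO3 value obtained as one member of a kinome-wide profiling panel.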
Assay [6] deals with BDNF/NT-3 growth factors receptor (Homo sapiens, UniProt Q16620). It is filed as functional.
Assay [7] has as its target G protein-coupled receptor kinase 5 (Homo sapiens, UniProt P34947). As to the kind of experiment: Navigating the Kinome. Panel member name: GPRK5. In kind it is functional.
Assay [8] has as its target Tyrosine-protein kinase JAK3 (Homo sapiens, UniProt P52333). It is filed as functional.
Assay [9] deals with Tyrosine-protein kinase BTK (Homo sapiens, UniProt Q06187). In kind it is functional.
Assay [10] has as its target Calcium/calmodulin-dependent protein kinase type II subunit alpha (Homo sapiens, UniProt Q9UQM7). As to the kind of experiment: Navigating the Kinome. Panel member name: CAMK2A. It is filed as functional.
The target in assay [11] is Serine/threonine-protein kinase pim-1 (Homo sapiens, UniProt P11309). It is filed as functional.
The target of assay [12] is Death-associated protein kinase 3 (Homo sapiens, UniProt O43293). It is filed as functional.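 Note: measured as one member of a kinome-wide profiling panel.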
In assay [13] the target is RAC-alpha serine/threonine-protein kinase (Homo sapiens, UniProt P31749). It is filed as functional.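 Note: AKT1 affinity measured as one member of a kinome-wide kinase profiling panel.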
For assay [14], the target named is Interleukin-1 receptor-associated kinase 4 (Homo sapiens, UniProt Q9NWZ3). In kind it is functional.
The target in assay [15] is Proto-oncogene tyrosine-protein kinase Src (Homo sapiens, UniProt P12931). In kind it is functional.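 Note: SRC entry within a kinome-wide kinase profiling panel.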
The target of assay [16] is Serine/threonine-protein kinase PLK4 (Homo sapiens, UniProt O00444). It is filed as functional.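 Note: PLK4 measured as one member of a kinome-wide kinase profiling panel.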
Assay [17] deals with Serine/threonine-protein kinase PLK1 (Homo sapiens, UniProt P53350). In kind it is functional.
Assay [18] concerns the target Mitogen-activated protein kinase 12 (Homo sapiens, UniProt P53778). It is filed as functional.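 Note: measured as one member of a kinome-wide kinase profiling panel.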
For assay [19], the target named is RAC-gamma serine/threonine-protein kinase (Homo sapiens, UniProt Q9Y243). It is filed as functional.
Assay [20] deals with T1, Replicative DNA helicase DnaB (Mycobacterium tuberculosis, UniProt P9WMR3).
T1 sequence (P9WMR3 whole entry): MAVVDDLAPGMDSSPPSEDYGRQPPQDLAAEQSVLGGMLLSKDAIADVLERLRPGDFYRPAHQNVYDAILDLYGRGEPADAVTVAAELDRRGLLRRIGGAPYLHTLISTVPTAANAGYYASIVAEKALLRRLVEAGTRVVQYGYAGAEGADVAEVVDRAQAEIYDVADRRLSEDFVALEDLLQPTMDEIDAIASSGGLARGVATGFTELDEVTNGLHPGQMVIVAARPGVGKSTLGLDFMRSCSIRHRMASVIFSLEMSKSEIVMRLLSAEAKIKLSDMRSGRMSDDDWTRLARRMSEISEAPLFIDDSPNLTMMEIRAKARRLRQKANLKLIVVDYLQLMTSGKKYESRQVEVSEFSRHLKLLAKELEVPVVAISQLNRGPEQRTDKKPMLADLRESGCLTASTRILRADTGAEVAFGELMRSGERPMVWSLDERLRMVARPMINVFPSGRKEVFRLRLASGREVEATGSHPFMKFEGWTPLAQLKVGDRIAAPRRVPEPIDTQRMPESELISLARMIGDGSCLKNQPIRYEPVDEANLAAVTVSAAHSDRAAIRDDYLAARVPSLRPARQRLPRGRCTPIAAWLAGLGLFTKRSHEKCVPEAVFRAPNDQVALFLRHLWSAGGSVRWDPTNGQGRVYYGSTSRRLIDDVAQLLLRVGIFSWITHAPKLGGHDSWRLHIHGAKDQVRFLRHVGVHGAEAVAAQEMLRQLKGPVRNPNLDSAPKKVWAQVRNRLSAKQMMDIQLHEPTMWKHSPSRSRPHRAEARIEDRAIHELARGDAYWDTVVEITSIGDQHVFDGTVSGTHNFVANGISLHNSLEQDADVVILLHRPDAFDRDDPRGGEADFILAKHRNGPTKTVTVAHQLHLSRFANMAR
Kind of assay: DnaB intein splicing inhibitors, dose response, biochemical, cell-free fluorescence (AID 449749). It is filed as functional.

Assay [21] deals with Mitochondrial peptide methionine sulfoxide reductase (Bos taurus, UniProt P54149). As to the kind of experiment: Absorbance-based biochemical high throughput dose response assay for activators of Methionine sulfoxide reductase A (MsrA). In kind it is functional.
The target in assay [22] is T2, RNA-binding protein pos-1 (Caenorhabditis elegans, UniProt G5EF15).
T2 sequence (G5EF15 whole entry): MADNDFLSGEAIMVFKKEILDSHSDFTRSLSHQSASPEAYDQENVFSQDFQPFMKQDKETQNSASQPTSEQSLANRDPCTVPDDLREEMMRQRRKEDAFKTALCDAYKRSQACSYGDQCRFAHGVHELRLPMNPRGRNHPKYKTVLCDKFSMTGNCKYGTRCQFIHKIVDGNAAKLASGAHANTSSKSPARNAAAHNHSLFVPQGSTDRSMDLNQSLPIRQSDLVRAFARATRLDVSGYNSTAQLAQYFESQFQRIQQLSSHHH
As to the kind of experiment: disruptors of C. elegans POS-1 RNA interaction – biochemical, fluorescence polarization, dose response (AID 1964).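 Note: purified POS-1 fused to maltose binding protein made in E. coli; potency of compounds blocking POS-1 binding to fluorescent RNA.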

Sequence of Glycogen synthase kinase-3 beta (P49841 whole entry): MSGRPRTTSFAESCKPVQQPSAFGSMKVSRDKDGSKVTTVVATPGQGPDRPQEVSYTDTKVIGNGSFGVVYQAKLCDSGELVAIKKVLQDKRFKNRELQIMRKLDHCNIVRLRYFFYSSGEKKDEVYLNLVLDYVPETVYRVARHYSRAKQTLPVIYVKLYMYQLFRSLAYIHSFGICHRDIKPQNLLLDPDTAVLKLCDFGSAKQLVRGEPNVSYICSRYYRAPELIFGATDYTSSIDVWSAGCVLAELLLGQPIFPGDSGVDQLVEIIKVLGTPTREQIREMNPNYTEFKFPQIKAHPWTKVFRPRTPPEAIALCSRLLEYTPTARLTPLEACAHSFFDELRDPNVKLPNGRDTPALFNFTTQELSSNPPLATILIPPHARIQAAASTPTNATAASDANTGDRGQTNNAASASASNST
Sequence of Serine/threonine-protein kinase pim-1 (P11309 whole entry): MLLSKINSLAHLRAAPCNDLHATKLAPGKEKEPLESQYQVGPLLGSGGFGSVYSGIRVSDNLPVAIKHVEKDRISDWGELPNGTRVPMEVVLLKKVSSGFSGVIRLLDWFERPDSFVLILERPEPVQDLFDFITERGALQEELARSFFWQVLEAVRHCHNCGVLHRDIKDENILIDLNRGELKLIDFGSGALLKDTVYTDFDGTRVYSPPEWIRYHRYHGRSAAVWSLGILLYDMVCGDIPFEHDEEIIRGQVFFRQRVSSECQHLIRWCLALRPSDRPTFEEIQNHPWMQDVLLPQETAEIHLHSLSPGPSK
Sequence of BDNF/NT-3 growth factors receptor (Q16620 whole entry): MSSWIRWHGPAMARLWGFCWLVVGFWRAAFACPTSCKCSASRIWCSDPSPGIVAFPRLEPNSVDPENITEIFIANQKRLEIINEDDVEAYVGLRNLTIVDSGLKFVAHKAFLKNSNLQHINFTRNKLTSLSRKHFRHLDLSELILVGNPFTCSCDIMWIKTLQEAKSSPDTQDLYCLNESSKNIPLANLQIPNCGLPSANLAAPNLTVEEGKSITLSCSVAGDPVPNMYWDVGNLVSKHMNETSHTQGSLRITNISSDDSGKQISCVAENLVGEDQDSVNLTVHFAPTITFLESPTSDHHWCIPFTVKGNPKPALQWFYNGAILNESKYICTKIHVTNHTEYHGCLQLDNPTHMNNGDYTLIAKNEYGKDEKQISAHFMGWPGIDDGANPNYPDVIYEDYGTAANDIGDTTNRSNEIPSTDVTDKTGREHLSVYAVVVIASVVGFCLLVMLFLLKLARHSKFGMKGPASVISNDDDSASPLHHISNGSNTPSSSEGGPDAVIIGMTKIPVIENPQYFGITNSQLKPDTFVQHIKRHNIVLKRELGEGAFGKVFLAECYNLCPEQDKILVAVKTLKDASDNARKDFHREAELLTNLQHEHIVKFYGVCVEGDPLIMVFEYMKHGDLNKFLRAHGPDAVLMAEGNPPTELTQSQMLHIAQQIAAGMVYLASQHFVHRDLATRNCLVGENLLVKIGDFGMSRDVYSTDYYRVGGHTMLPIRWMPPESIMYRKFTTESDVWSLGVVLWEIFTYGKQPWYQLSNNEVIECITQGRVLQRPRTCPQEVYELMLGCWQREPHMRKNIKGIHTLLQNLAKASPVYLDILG
Sequence of Death-associated protein kinase 3 (O43293 whole entry): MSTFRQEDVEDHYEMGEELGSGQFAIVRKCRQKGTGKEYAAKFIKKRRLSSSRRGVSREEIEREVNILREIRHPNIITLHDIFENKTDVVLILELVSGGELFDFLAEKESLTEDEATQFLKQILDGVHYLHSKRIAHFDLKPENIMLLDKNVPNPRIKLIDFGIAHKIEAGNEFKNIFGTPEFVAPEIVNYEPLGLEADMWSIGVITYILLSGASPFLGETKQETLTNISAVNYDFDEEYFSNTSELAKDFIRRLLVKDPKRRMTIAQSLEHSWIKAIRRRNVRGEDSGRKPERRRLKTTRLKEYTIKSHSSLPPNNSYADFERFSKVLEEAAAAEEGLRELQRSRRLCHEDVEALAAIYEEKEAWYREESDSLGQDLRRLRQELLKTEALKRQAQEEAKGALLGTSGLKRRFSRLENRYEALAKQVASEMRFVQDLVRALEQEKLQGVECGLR
Sequence of Tyrosine-protein kinase JAK3 (P52333 whole entry): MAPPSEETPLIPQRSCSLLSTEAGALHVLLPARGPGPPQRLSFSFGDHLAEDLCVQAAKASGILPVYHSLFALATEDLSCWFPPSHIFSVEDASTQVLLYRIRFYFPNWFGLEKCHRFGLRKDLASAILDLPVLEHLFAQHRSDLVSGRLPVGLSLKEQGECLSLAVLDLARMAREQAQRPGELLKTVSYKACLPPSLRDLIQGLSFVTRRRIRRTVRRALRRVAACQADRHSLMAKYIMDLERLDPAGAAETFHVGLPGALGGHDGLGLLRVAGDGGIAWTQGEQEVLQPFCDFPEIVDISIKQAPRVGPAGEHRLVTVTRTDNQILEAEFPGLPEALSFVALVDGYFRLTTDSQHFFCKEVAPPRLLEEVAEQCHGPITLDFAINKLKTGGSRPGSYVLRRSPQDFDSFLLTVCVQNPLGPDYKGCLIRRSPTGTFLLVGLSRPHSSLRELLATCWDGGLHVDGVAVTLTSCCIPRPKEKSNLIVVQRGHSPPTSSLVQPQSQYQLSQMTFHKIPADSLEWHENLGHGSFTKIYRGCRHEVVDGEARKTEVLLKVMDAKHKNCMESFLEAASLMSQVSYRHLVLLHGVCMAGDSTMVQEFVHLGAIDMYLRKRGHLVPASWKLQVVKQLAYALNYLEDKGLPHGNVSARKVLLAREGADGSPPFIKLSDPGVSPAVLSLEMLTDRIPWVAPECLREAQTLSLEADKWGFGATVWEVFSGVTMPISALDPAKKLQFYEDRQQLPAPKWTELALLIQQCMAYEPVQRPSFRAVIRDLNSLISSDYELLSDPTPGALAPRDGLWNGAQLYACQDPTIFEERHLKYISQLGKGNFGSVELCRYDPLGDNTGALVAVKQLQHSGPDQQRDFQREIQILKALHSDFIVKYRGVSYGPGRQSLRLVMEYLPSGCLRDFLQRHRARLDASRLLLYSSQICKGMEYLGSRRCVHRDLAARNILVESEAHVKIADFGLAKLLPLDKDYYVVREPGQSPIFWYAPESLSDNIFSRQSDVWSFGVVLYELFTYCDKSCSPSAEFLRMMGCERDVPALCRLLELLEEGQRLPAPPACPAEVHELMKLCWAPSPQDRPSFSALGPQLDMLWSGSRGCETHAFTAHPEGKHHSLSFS
Sequence of Calcium/calmodulin-dependent protein kinase type II subunit alpha (Q9UQM7 whole entry): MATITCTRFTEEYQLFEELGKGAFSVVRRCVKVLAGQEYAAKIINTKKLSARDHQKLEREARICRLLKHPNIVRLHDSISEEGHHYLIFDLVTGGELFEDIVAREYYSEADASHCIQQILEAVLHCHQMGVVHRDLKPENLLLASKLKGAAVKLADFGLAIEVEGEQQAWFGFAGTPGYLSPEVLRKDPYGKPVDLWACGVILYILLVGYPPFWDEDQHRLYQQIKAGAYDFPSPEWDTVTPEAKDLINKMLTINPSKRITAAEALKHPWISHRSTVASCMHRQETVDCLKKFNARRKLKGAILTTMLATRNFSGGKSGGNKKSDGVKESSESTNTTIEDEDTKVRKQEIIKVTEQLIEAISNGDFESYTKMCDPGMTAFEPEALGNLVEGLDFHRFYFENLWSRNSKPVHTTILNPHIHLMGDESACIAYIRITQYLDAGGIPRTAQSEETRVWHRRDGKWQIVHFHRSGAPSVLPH
Sequence of Proto-oncogene tyrosine-protein kinase Src (P12931 2-536 limits assumed): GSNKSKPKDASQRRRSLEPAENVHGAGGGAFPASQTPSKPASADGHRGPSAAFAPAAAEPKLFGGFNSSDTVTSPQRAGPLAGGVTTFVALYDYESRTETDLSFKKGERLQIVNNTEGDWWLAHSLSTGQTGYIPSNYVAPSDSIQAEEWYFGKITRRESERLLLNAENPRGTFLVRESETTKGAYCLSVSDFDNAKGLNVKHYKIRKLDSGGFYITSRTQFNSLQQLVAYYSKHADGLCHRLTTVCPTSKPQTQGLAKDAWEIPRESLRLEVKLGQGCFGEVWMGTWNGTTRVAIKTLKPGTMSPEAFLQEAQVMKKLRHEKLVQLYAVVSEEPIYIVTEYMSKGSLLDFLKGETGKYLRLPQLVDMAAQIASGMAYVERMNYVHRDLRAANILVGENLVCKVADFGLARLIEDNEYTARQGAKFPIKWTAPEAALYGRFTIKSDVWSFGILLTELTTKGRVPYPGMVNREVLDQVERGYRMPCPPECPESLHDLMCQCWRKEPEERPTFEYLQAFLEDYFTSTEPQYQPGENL
Sequence of Tyrosine-protein kinase receptor TYRO3 (Q06418 whole entry): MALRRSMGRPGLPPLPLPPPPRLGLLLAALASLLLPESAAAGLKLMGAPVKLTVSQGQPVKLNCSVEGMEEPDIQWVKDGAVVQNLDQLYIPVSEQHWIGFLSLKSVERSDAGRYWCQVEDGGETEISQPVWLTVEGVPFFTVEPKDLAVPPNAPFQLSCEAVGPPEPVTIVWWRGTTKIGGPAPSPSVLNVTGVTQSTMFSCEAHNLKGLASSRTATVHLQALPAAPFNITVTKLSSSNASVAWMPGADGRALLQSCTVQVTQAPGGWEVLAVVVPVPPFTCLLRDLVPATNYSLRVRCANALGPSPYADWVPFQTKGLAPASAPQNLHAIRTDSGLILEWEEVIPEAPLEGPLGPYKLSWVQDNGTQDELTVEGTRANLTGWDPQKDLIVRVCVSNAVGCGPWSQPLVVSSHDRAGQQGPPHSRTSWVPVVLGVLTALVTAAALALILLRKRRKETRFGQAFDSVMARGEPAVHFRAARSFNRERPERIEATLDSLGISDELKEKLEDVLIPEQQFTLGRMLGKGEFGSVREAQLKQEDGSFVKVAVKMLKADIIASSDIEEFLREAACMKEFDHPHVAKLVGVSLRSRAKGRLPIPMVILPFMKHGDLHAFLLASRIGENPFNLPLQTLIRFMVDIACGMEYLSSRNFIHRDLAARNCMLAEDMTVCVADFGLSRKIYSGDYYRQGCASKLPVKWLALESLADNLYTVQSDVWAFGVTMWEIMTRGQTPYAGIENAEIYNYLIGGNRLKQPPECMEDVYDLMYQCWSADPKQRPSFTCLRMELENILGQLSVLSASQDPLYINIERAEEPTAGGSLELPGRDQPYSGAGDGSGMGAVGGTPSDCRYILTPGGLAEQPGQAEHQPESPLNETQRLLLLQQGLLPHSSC

The Ki is a dissociation constant, usually derived from enzyme kinetics or from competition with a known ligand. For the molecule `Cc1cc(=O)[nH]nc1-c1ccc(NC(=O)Nc2cc(C(F)(F)F)ccc2F)c(Cl)c1`, the Ki was > 3.16 µM (inactive) in assay [1]; > 2.51 µM (inactive) in [2]; > 3.98 µM (inactive) in assay [3]; > 3.98 µM (inactive) in assay [4]; > 3.16 µM (inactive) in assay [5]; 0.01 µM (active) in assay [6]. Besides, the Ki is > 3.98 µM (inactive) in [7]; > 5.01 µM (inactive) in [8]; > 6.31 µM (inactive) in [9]; > 3.98 µM (inactive) in assay [10]; > 6.31 µM (inactive) in assay [11]; > 5.01 µM (inactive) in [12].
Regarding `CCOC(=O)c1cn(-c2ccc(O)cc2C)c2cc(-c3ccncc3)ccc2c1=O`, the Ki was > 6.31 µM (inactive) in assay [3]; > 7.94 µM (inactive) in assay [13]; > 10 µM (inactive) in assay [14]; > 5.01 µM (inactive) in assay [15]; > 5.01 µM (inactive) in assay [6]; > 3.98 µM (inactive) in assay [16]. In addition, the Ki in assay [8] was > 1.58 µM (inactive); in assay [17] it was > 7.94 µM (inactive); in [18] it was > 6.31 µM (inactive); in assay [19] it was > 10 µM (inactive); in assay [11] it was > 10 µM (inactive); in assay [12], > 1.26 µM (inactive).
Usually AC50 stands for the midpoint of the concentration-response curve, whichever way the signal moves. Broadly, the EC50 is the concentration at which the effect is half-maximal. As to `O=C1C=C(NCc2ccccc2)c2ccccc2C1=O`, the AC50 in [20] is > 380 µM (inconclusive). In addition, the EC50 in assay [21] is 63.3 µM (inactive).
`O=C(O)c1[nH]c2ccccc2c1C(c1cc(Cl)cc([N+](=O)[O-])c1O)c1c(C(=O)O)[nH]c2ccccc12`: the EC50 in assay [22] was 14.9 µM (active).
